IC50 data for two compounds are collected here from PMC9570267, “A Computational QSAR, Molecular Docking and In Vitro Cytotoxicity Study of Novel Thiouracil-Based Drugs with Anticancer Activity against Human-DNA Topoisomerase II” (International Journal of Molecular Sciences, 2022).

The term IC50 denotes the concentration needed to halve the response being measured. Lower therefore signals higher potency.

For the experiment, the target named is T1, topoisomerase I (Homo sapiens, UniProt P11387).
T1 construct: gene TOP1
T1 sequence (P11387 2-765): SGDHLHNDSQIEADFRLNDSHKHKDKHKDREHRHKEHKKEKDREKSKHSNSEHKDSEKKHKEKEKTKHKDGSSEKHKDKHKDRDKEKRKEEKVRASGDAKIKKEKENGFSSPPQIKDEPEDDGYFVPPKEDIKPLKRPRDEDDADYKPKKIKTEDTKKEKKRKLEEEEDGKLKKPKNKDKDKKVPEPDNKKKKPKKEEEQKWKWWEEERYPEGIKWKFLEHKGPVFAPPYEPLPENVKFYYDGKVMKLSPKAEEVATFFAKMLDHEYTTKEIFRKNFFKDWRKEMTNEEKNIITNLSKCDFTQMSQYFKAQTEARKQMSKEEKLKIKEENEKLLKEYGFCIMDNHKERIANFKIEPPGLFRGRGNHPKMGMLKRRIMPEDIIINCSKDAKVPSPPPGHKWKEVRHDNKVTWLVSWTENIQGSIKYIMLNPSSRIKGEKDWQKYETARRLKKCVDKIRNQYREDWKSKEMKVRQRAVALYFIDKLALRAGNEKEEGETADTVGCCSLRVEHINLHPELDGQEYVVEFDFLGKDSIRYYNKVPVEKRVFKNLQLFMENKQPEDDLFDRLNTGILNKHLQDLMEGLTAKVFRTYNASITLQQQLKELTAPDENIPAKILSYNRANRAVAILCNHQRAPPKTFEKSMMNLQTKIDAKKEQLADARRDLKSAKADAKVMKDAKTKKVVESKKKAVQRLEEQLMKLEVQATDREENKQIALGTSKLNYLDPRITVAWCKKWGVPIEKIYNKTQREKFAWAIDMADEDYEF
Nature of the experiment: supercoiled plasmid DNA relaxation gel assay (TopoGEN topo I kit). Type of experiment: biochemical.

For `COc1ccc(C2C3=C(Nc4[nH]c(=S)[nH]c(=O)c42)c2ccccc2C3=O)cc1` (centres unmarked) [7H], the half-inhibitory concentration (IC50) is 30.9 ± 1.49 µM. With `CN(C)c1ccc(C2C3=C(Nc4[nH]c(=S)[nH]c(=O)c42)c2ccccc2C3=O)cc1` (centres unmarked) [9H] the figure was 38.8 ± 2.27 µM.
